Assay results reported in ChEMBL document CHEMBL3232789, “Design and synthesis of novel 2H-chromen-2-one derivatives bearing 1,2,3-triazole moiety as lead antimicrobials” (2014).

Columns and labels:
Aspergillus niger = assay: Antifungal activity against Aspergillus niger MTCC 282 assessed as growth inhibition at 100 ug/mL after 30 hrs by cup plate method; assay type: functional; settings: MTCC 282, 30 h, read-out: DIZ
Aspergillus fumigatus = assay: Antifungal activity against Aspergillus fumigatus MTCC 343 assessed as growth inhibition at 100 ug/mL after 30 hrs by cup plate method; assay type: functional; settings: MTCC 343, 30 h, read-out: DIZ
Aspergillus flavus = assay: Antifungal activity against Aspergillus flavus MTCC 277 assessed as growth inhibition at 100 ug/mL after 30 hrs by cup plate method; assay type: functional; settings: MTCC 277, 30 h, read-out: DIZ
Candida albicans = assay: Antifungal activity against Candida albicans MTCC 227 assessed as growth inhibition at 100 ug/mL after 30 hrs by cup plate method; assay type: functional; settings: MTCC 227, 30 h, read-out: DIZ
Staphylococcus aureus = assay: Antibacterial activity against Staphylococcus aureus MTCC 096 assessed as growth inhibition at 100 ug/mL after 14 hrs by cup plate method; assay type: functional; settings: MTCC 096, 14 h, read-out: DIZ
Bacillus subtilis = assay: Antibacterial activity against Bacillus subtilis MTCC 441 assessed as growth inhibition at 100 ug/mL after 14 hrs by cup plate method; assay type: functional; settings: MTCC 441, 14 h, read-out: DIZ
[1] = system: Staphylococcus epidermidis; assay: Antibacterial activity against Staphylococcus epidermidis MTCC 435 assessed as growth inhibition at 100 ug/mL after 14 hrs by cup plate method; assay type: functional; settings: MTCC 435, 14 h, read-out: DIZ
Escherichia coli = assay: Antibacterial activity against Escherichia coli MTCC 443 assessed as growth inhibition at 100 ug/mL after 14 hrs by cup plate method; assay type: functional; settings: MTCC 443, 14 h, read-out: DIZ
Pseudomonas aeruginosa = assay: Antibacterial activity against Pseudomonas aeruginosa MTCC 424 assessed as growth inhibition at 100 ug/mL after 14 hrs by cup plate method; assay type: functional; settings: MTCC 424, 14 h, read-out: DIZ
Salmonella typhi = assay: Antibacterial activity against Salmonella typhi MTCC 733 assessed as growth inhibition at 100 ug/mL after 14 hrs by cup plate method; assay type: functional, Salmonella enterica subsp. enterica serovar Typhi; settings: Salmonella enterica, MTCC 733, 14 h; read-out: DIZ
Klebsiella pneumoniae = assay: Antibacterial activity against Klebsiella pneumoniae MTCC 432 assessed as growth inhibition at 100 ug/mL after 14 hrs by cup plate method; assay type: functional; settings: MTCC 432, 14 h, read-out: DIZ

SMILES: Cc1cc(=O)oc2cc(OCCCCCCn3cc(CN4CCCC4)nn3)ccc12
- zone of inhibition at 100 µg/mL (Aspergillus niger): 12.5 mm
- zone of inhibition at 100 µg/mL (Aspergillus fumigatus): 18.5 mm
- zone of inhibition at 100 µg/mL (Aspergillus flavus): 14.7 mm
- zone of inhibition at 100 µg/mL (Candida albicans): 14.4 mm
- zone of inhibition at 100 µg/mL (Staphylococcus aureus): 13.6 mm
- zone of inhibition at 100 µg/mL (Bacillus subtilis): 14 mm
- zone of inhibition at 100 µg/mL [1]: 14 mm
- zone of inhibition at 100 µg/mL (Escherichia coli): 11.7 mm
- zone of inhibition at 100 µg/mL (Pseudomonas aeruginosa): 14.8 mm
- zone of inhibition at 100 µg/mL (Salmonella typhi): 15.2 mm
- zone of inhibition at 100 µg/mL (Klebsiella pneumoniae): 14.4 mm

SMILES: Cc1cc(=O)oc2cc(OCc3cn(CCCN4C(=O)c5ccccc5C4=O)nn3)ccc12
- zone of inhibition at 100 µg/mL (Aspergillus niger): 13.2 mm
- zone of inhibition at 100 µg/mL (Aspergillus fumigatus): 21.3 mm
- zone of inhibition at 100 µg/mL (Aspergillus flavus): 16.4 mm
- zone of inhibition at 100 µg/mL (Candida albicans): 18.6 mm
- zone of inhibition at 100 µg/mL (Staphylococcus aureus): 12.8 mm
- zone of inhibition at 100 µg/mL (Bacillus subtilis): 12.5 mm
- zone of inhibition at 100 µg/mL [1]: 11.4 mm
- zone of inhibition at 100 µg/mL (Escherichia coli): 12.6 mm
- zone of inhibition at 100 µg/mL (Pseudomonas aeruginosa): 13.1 mm
- zone of inhibition at 100 µg/mL (Salmonella typhi): 12.3 mm
- zone of inhibition at 100 µg/mL (Klebsiella pneumoniae): 14.4 mm

SMILES: Cc1cc(=O)oc2cc(OCCCCCCn3cc(CN4CCN(Cc5ccc6c(c5)OCO6)CC4)nn3)ccc12
- zone of inhibition at 100 µg/mL (Aspergillus niger): 11.9 mm
- zone of inhibition at 100 µg/mL (Aspergillus fumigatus): 20.6 mm
- zone of inhibition at 100 µg/mL (Aspergillus flavus): 15 mm
- zone of inhibition at 100 µg/mL (Candida albicans): 16.8 mm
- zone of inhibition at 100 µg/mL (Staphylococcus aureus): 14 mm
- zone of inhibition at 100 µg/mL (Bacillus subtilis): 12.5 mm
- zone of inhibition at 100 µg/mL [1]: 11.9 mm
- zone of inhibition at 100 µg/mL (Escherichia coli): 12.3 mm
- zone of inhibition at 100 µg/mL (Pseudomonas aeruginosa): 14.9 mm
- zone of inhibition at 100 µg/mL (Salmonella typhi): 14.1 mm
- zone of inhibition at 100 µg/mL (Klebsiella pneumoniae): 13.9 mm

SMILES: CC(=O)N1CCN(Cc2cn(CCCCCCOc3ccc4c(C)cc(=O)oc4c3)nn2)CC1
- zone of inhibition at 100 µg/mL (Aspergillus niger): 12.7 mm
- zone of inhibition at 100 µg/mL (Aspergillus fumigatus): 18.2 mm
- zone of inhibition at 100 µg/mL (Aspergillus flavus): 12.9 mm
- zone of inhibition at 100 µg/mL (Candida albicans): 14.7 mm
- zone of inhibition at 100 µg/mL (Staphylococcus aureus): 14.4 mm
- zone of inhibition at 100 µg/mL (Bacillus subtilis): 12.4 mm
- zone of inhibition at 100 µg/mL [1]: 14.8 mm
- zone of inhibition at 100 µg/mL (Escherichia coli): 13.3 mm
- zone of inhibition at 100 µg/mL (Pseudomonas aeruginosa): 17.1 mm
- zone of inhibition at 100 µg/mL (Salmonella typhi): 12.1 mm
- zone of inhibition at 100 µg/mL (Klebsiella pneumoniae): 14.4 mm

SMILES: Cc1cc(=O)oc2cc(OCCCCN=[N+]=[N-])ccc12
- zone of inhibition at 100 µg/mL (Aspergillus niger): 13.1 mm
- zone of inhibition at 100 µg/mL (Aspergillus fumigatus): 18.6 mm
- zone of inhibition at 100 µg/mL (Aspergillus flavus): 13.6 mm
- zone of inhibition at 100 µg/mL (Candida albicans): 19.3 mm
- zone of inhibition at 100 µg/mL (Staphylococcus aureus): 13.5 mm
- zone of inhibition at 100 µg/mL (Bacillus subtilis): 11.3 mm
- zone of inhibition at 100 µg/mL [1]: 12.7 mm
- zone of inhibition at 100 µg/mL (Escherichia coli): 13 mm
- zone of inhibition at 100 µg/mL (Pseudomonas aeruginosa): 12.8 mm
- zone of inhibition at 100 µg/mL (Salmonella typhi): 12.9 mm
- zone of inhibition at 100 µg/mL (Klebsiella pneumoniae): 12.5 mm

SMILES: Cc1cc(=O)oc2cc(OCc3cn(CCCCCN4C(=O)c5ccccc5C4=O)nn3)ccc12
- zone of inhibition at 100 µg/mL (Aspergillus niger): 12.3 mm
- zone of inhibition at 100 µg/mL (Aspergillus fumigatus): 23.4 mm
- zone of inhibition at 100 µg/mL (Aspergillus flavus): 14.5 mm
- zone of inhibition at 100 µg/mL (Candida albicans): 16.9 mm
- zone of inhibition at 100 µg/mL (Staphylococcus aureus): 12.5 mm
- zone of inhibition at 100 µg/mL (Bacillus subtilis): 13.6 mm
- zone of inhibition at 100 µg/mL [1]: 12.6 mm
- zone of inhibition at 100 µg/mL (Escherichia coli): 12.5 mm
- zone of inhibition at 100 µg/mL (Pseudomonas aeruginosa): 12.9 mm
- zone of inhibition at 100 µg/mL (Salmonella typhi): 12.7 mm
- zone of inhibition at 100 µg/mL (Klebsiella pneumoniae): 12.6 mm

SMILES: Cc1cc(=O)oc2cc(OCc3cn(CCN4C(=O)c5ccccc5C4=O)nn3)ccc12
- zone of inhibition at 100 µg/mL (Aspergillus niger): 14.4 mm
- zone of inhibition at 100 µg/mL (Aspergillus fumigatus): 19.5 mm
- zone of inhibition at 100 µg/mL (Aspergillus flavus): 12.5 mm
- zone of inhibition at 100 µg/mL (Candida albicans): 20.2 mm
- zone of inhibition at 100 µg/mL (Staphylococcus aureus): 13 mm
- zone of inhibition at 100 µg/mL (Bacillus subtilis): 10.5 mm
- zone of inhibition at 100 µg/mL [1]: 12.4 mm
- zone of inhibition at 100 µg/mL (Escherichia coli): 14.5 mm
- zone of inhibition at 100 µg/mL (Pseudomonas aeruginosa): 13 mm
- zone of inhibition at 100 µg/mL (Salmonella typhi): 11.9 mm
- zone of inhibition at 100 µg/mL (Klebsiella pneumoniae): 13.3 mm
